This note sets out measurements from US20230399611A1, “PRODUCTION METHOD FOR STAGE 5 NEURONS” (Ricoh Company, Ltd., priority 2022, published 2023).

Experiment [1] has as its system human iPSC-derived neurons. Nature of the experiment: Population firing rate of iPSC-derived neurons on high-density microelectrode array (HD-MEA). Conditions: added at 8 weeks after initiation of culture with increasing concentration; 1,024 electrodes per well; 10-minute recording per concentration. The class given is cell-based. The method, then:
Electrophysiological responses of the human iPSC-derived neurons were analyzed by using a high-density microelectrode array system (HD-MEA, MaxWell Biosystems AG).
Human iPSC-derived neurons (product name “Quick-Neuron (trademark) Excitatory-Human iPSC-derived Neurons”, ELIXIRGEN SCIENTIFIC, INC.) were cultured in the same manner as in Experimental Example 1, except that the human iPSC-derived neurons were seeded on electrodes of the high-density microelectrode array (HD-MEA) at a cell density of 100,000 cells/well, and the local electric field potential was measured over time.
4-Aminopyridine (4-AP) serving as a potassium channel inhibitor and D-2-Amino-5-phosphonopentanoic acid (D-AP5) serving ax an NMDA receptor inhibitor were added in the culture medium of iPSC-derived neurons at 8 weeks after the initiation of culture while increasing each concentration, and population firing rate histograms were recorded with 1,024 electrodes per well. One-minute stabilization and 10-minute recording were performed for each concentration. Finally, the iPSC-derived neurons were washed with three medium replacements and left for one day, and it was confirmed that the effect of each drug had disappeared.

The subject of experiment [2] is Human iPSC-derived mature stage 5 neurons. Nature of the experiment: Localization change of drebrin by immunostaining after glutamic acid treatment. The class given is cell-based. Conditions: 100 μM for 10 min; immunostaining of MAP2, drebrin, nuclei. How it is done:
Human iPSC-derived mature stage 5 neurons were treated with 100 μM glutamic acid for 10 minutes and then immunostained to examine the localization change of drebrin. For comparison, a sample immunostained without glutamic acid treatment was also prepared.

SMILES strings stand for the structures.

As to `Nc1ccncc1` [4-AP, 4-Aminopyridine], the “response of population firing rate to the drug” value in experiment [1] is “dose-dependent responses”. Same read-out and setting: in the case of `N[C@H](CCCP(=O)(O)O)C(=O)O` [D-AP5, D-2-Amino-5-phosphonopentanoic acid] it was “dose-dependent responses”.

With `N[C@@H](CCC(=O)O)C(=O)O` [glutamate, glutamic acid], the “localization change of drebrin” value in experiment [2] is listed as “drebrin was effluxed from clusters in spines”.
